Consider 16 compounds from ChEMBL document CHEMBL5113482, “Discovery of fused benzimidazole-imidazole autophagic flux inhibitors for treatment of triple-negative breast cancer” (Eur J Med Chem, 2022).

The subject of one test is MDA-MB-231. Kind of test: Antiproliferative activity against human MDA-MB-231 cells assessed as cell growth inhibition measured after 48 hrs by MTT assay. The test is classed as functional, cell-based. To be noted: MDA-MB-231, 48 h. (Tetrazolium assays rely on reduction of a dye to a coloured formazan, in cell work by metabolically active cells.)
In the case of `Cn1c(-c2nc[nH]c2C(=O)NC2CCCCC2)nc2ccccc21`, the half-maximal inhibitory concentration (IC50) is 36.8 µM.

As for `O=c1[nH]cc(F)c(=O)[nH]1` [FLUOROURACIL], the IC50 was 26.7 µM. Same read-out and setting: in the case of `N#Cc1ccccc1NC(=O)c1[nH]cnc1-c1nc2ccccc2[nH]1` it was 34.2 µM. The same measure, in the same setting: in the case of `O=C(NCc1cccs1)c1[nH]cnc1-c1nc2ccccc2[nH]1` it was 35.1 µM; in that of `O=C(NCC1CC1)c1[nH]cnc1-c1nc2ccccc2[nH]1`, 33.1 µM; in that of `Cc1cc2nc(-c3nc[nH]c3C(=O)NC3CCCCC3)[nH]c2cc1C`, 35.6 µM. Same read-out and setting: in the case of `O=C(NCc1ccco1)c1[nH]cnc1-c1nc2ccccc2[nH]1` it was 22.2 µM. Turning to `CC(C)(C)NC(=O)c1[nH]cnc1-c1nc2ccccc2[nH]1`, the half-maximal inhibitory concentration (IC50) is more than 40 µM. Still for that read-out and setting: under `O=C(NC1CCC1)c1[nH]cnc1-c1nc2ccccc2[nH]1` stands 33.8 µM; under `N#Cc1cccc(NC(=O)c2[nH]cnc2-c2nc3ccccc3[nH]2)c1`, 24.9 µM. Same read-out and setting: in the case of `O=C(NC1CC1)c1[nH]cnc1-c1nc2ccccc2[nH]1` it was 35.2 µM. `O=C(Nc1cccc2ccccc12)c1[nH]cnc1-c1nc2ccccc2[nH]1`: the IC50 is 34.8 µM. On the same count and under the same terms, under `O=C(NC1CCCC1)c1[nH]cnc1-c1nc2ccccc2[nH]1` stands 20.6 µM; under `Cn1cnc(-c2nc3ccccc3n2C)c1C(=O)NC1CCCCC1`, more than 40 µM; under `O=C(c1[nH]cnc1-c1nc2ccccc2[nH]1)N1CCOCC1`, more than 40 µM.

Take `O=C(NC1CCCCCC1)c1[nH]cnc1-c1nc2ccccc2[nH]1`: the concentration for half-maximal inhibition (IC50) is more than 40 µM.

For the next test, the system named is MDA-MB-468. The test is described as follows: Antiproliferative activity against human MDA-MB-468 cells assessed as cell growth inhibition measured after 48 hrs by MTT assay. The test is classed as functional, cell-based. To be noted: MDA-MB-468, 48 h.
Take `O=c1[nH]cc(F)c(=O)[nH]1` [FLUOROURACIL]: the IC50 was more than 200 µM.

The IC50 is the concentration at which inhibition is half-maximal.
